Results on six substances are retold here after US20250041367A1, “BACTERIOPHAGES AND USE THEREOF FOR THE TREATMENT OR PREVENTION OF INFECTION CAUSED BY E. COLI” (Purdue Research Foundation, priority 2023, published 2025).

Data set [1] deals with E. coli serotype O78 (APEC). Description: Host range spot assay. Type of data set: cell-based, Escherichia coli. Further details: key: — indicates no lysis at all; 0.1-1.0 indicates that the phage is semi-lytic; 1.1-2.0 indicates moderate lysis of bacteria; 2.1-3.0 indicates complete lysis of bacteria and formation of a transparent, circular clearing on the bacterial lawn. The conditions noted are these: E. coli serotype O78, scale 0-3. How it is done: (§1) The host range of each bacteriophage type was determined by performing spot assays using each of the ten distinct APEC serotypes mentioned above. Spot assays were performed as known in the art (Barrow et al., 1998, Clinical and Diagnostic Laboratory Immunology, 5 (3), 294-298). 100 μL aliquots of log-phase bacterial cultures were combined with 67.5 μL 1M CaCl2) and 4 mL LB overlay, mixed briefly, and poured over LB agar plates. Once the overlay had solidified, 5 μL aliquots of individual phage types were applied (i.e., spotted) onto the plates, and plates were incubated at 37° C. overnight. Plates were assessed for clearings the following day and the degree of lysis was measured using a four-point scale in which 0 indicated no lysis, 1.0 indicated some lysis, 2.0 indicated moderate lysis, and 3 indicated complete lysis. Spot assays were conducted in triplicate for each phage and APEC strain.

Data set [2] relates to E. coli serotype O6:H31 (APEC). Description: Host range spot assay. The settings on record: E. coli serotype O6:H31, scale 0-3. Further details: key: — indicates no lysis at all; 0.1-1.0 indicates that the phage is semi-lytic; 1.1-2.0 indicates moderate lysis of bacteria; 2.1-3.0 indicates complete lysis of bacteria and formation of a transparent, circular clearing on the bacterial lawn. Type of data set: cell-based, Escherichia coli. As to the method:
as §1

The test system of data set [3] is E. coli serotype O2 (APEC). Description: Host range spot assay. Type of data set: cell-based, Escherichia coli. Further details: key: — indicates no lysis at all; 0.1-1.0 indicates that the phage is semi-lytic; 1.1-2.0 indicates moderate lysis of bacteria; 2.1-3.0 indicates complete lysis of bacteria and formation of a transparent, circular clearing on the bacterial lawn. The conditions noted are these: E. coli serotype O2, scale 0-3. As to the method:
as §1

Data set [4] concerns E. coli serotype O1:H23 (APEC). Description: Host range spot assay. Type of data set: cell-based, Escherichia coli. Further details: key: — indicates no lysis at all; 0.1-1.0 indicates that the phage is semi-lytic; 1.1-2.0 indicates moderate lysis of bacteria; 2.1-3.0 indicates complete lysis of bacteria and formation of a transparent, circular clearing on the bacterial lawn. The settings on record: E. coli serotype O1:H23, scale 0-3. How it is done:
as §1

In data set [5] the test system is E. coli serotype O2:H4 (APEC). Nature of the data set: Host range spot assay. Type of data set: cell-based, Escherichia coli. Further details: key: — indicates no lysis at all; 0.1-1.0 indicates that the phage is semi-lytic; 1.1-2.0 indicates moderate lysis of bacteria; 2.1-3.0 indicates complete lysis of bacteria and formation of a transparent, circular clearing on the bacterial lawn. The settings on record: E. coli serotype O2:H4, scale 0-3. How it is done:
as §1

Data set [6] relates to E. coli serotype O78:H9 (APEC). Description: Host range spot assay. Type of data set: cell-based, Escherichia coli. Further details: key: — indicates no lysis at all; 0.1-1.0 indicates that the phage is semi-lytic; 1.1-2.0 indicates moderate lysis of bacteria; 2.1-3.0 indicates complete lysis of bacteria and formation of a transparent, circular clearing on the bacterial lawn. The settings on record: E. coli serotype O78:H9, scale 0-3. As to the method:
as §1

Data set [7] has as its system E. coli serotype O78:H51 (APEC). Description: Host range spot assay. More on the design: key: — indicates no lysis at all; 0.1-1.0 indicates that the phage is semi-lytic; 1.1-2.0 indicates moderate lysis of bacteria; 2.1-3.0 indicates complete lysis of bacteria and formation of a transparent, circular clearing on the bacterial lawn. The settings on record: E. coli serotype O78:H51, scale 0-3. Type of data set: cell-based, Escherichia coli. How it is done: as §1

In data set [8] the test system is E. coli serotype O5 (APEC). Description: Host range spot assay. Type of data set: cell-based, Escherichia coli. Further details: key: — indicates no lysis at all; 0.1-1.0 indicates that the phage is semi-lytic; 1.1-2.0 indicates moderate lysis of bacteria; 2.1-3.0 indicates complete lysis of bacteria and formation of a transparent, circular clearing on the bacterial lawn. The conditions noted are these: E. coli serotype O5, scale 0-3. How it is done: as §1

The nature of data set [9]: Phage release from microcapsules in SIF after SGF. Type of data set: physicochemical. The settings on record: encapsulated phage; for phages released from their microcapsules: 1 hour SGF then 1 hour in SIF; for concentration of released phages: 1 hour SGF then 1 hour of incubation in SIF. As to the method:
The extent to which phages were released from microcapsules in the intestinal environment was investigated by incubating encapsulated phages first in SGF and then in SIF. 0.5 g of microencapsulated phages (microcapsules) was added to 4.5 mL SGF in duplicate tube sets and incubated at 41° C. for 1 hour with shaking. SGF was then carefully removed via pipetting and microcapsules were combined with either 4.5 mL of SIF or 4.5 mL 1×PBS and incubated at 41° C. with shaking. Aliquots (100 μL) were collected from each sample at 1, 2, and 3 hours following exposure to SIF. The concentrations of released phages in these aliquots were determined using standard plaque assays with phages' respective host APEC serotypes. The experiment was conducted in triplicate with each phage type.

Data set [10] is described as follows: Encapsulation efficiency in sodium alginate microcapsules (plaque assay). More on the design: Pre-encapsulation phage concentration / Concentration of phages in microcapsules: unit not given here. Type of data set: physicochemical. The settings on record: for Pre-encapsulation phage concentration: before encapsulation; for Pre-encapsulation phage concentration / Concentration of phages in microcapsules: plaque assay; for Encapsulation efficiency: encapsulated / pre-encapsulation phage concentration; for Concentration of phages in microcapsules: sodium alginate microcapsules dissolved. How it is done: Bacteriophages were microencapsulated within sodium alginate microcapsules as well-known in the art with some modifications (Krasaekoopt et al., 2004, International Dairy Journal, 14 (8), 737-743). In short, sodium alginate (4 g) was mixed with 400 mL of a bacteriophage filtrate to make a 1% (w/v) suspension. This suspension was allowed to gel at room temperature for 4 hours and was then processed through a Buchi Encapsulator-B395 set at 200 Hz (frequency) and 1000V (electrode) with an aperture of 0.3 mm. The resulting microcapsules were collected in a beaker containing a hardening solution (100 mM CaCl2)) with continuous stirring to avoid clumping of microcapsules. Microcapsules were allowed to sit in the 100 mM CaCl2) solution to harden for 30 minutes and were then washed three times with SM buffer. Washed microcapsules were stored in SM buffer in 50 ml conical tubes at 4° C. until further use. Each of the six phage types was individually microencapsulated in this manner.
To assess the efficiency of microencapsulation, the concentrations of microencapsulated phages were compared to pre-encapsulation concentrations as well-known in the art (Yongsheng et al., 2008, Applied and Environmental Microbiology, 74 (15), 4799). To determine bacteriophage concentrations in microcapsules, microcapsules (0.5 g) were dried by contact with filter paper and then dissolved in 4.5 mL of dissolving solution (50 mM sodium citrate, 0.2M sodium bicarbonate, and 50 mM Tris-HCl; pH 7.5). Bacteriophage concentrations were then quantified by standard plaque assay as described previously. Encapsulation efficiency (EE %) was calculated as:
EE %=encapsulated phage concentration/pre-encapsulation phage concentration

The subject of data set [11] is E. coli serotype O2:H6 (APEC). Description: Host range spot assay. Type of data set: cell-based, Escherichia coli. The settings on record: E. coli serotype O2:H6, scale 0-3. As to the method:
as §1

Escherichia phage vB_Eco_AHC: the degree of lysis was 1.7 in [1]; 2.7 in data set [2]; 3.0 in [3]; 1.0 in data set [4]; “—” in data set [5]; “—” in data set [6]. The degree of lysis is recorded as 1.0 in [7], 1.7 in data set [8] and 2.0 in data set [11]. For the same substance, the “phages released from their microcapsules” value in data set [9] is recorded as 95.8%. Further, the “concentration of released phages” value in data set [9] was found to be 7.99 log10 PFU/mL. The substance also had a Pre-encapsulation phage concentration in [10] of 8.9 ± 0.1. In data set [10], this substance came in with an Encapsulation efficiency of 94.4%. Further, the “Concentration of phages in microcapsules” value in data set [10] was 8.4 ± 0.2.
Regarding Escherichia phage vB_Eco_AHP, the degree of lysis entry in data set [1] is reported as “—”; in [2] it was 3.0; in data set [3], “—”; in data set [4] it was 3.0; in [5] it was “—”; in [6], “—”. The degree of lysis entry is recorded as “—” in [7], “—” in [8] and 2.7 in data set [11]. In data set [9], the “phages released from their microcapsules” value stood at 97.4%. In addition, the “concentration of released phages” value in data set [9] stood at 9.14 log10 PFU/mL. In data set [10], the Pre-encapsulation phage concentration amounted to 9.6 ± 0.1. Besides, the Encapsulation efficiency in data set [10] was determined as 97.9%. For the same substance, in data set [10], the “Concentration of phages in microcapsules” value turned out to be 9.4 ± 0.1.
In the case of Escherichia phage vB_Eco_AKA, the degree of lysis in [1] is 1.3; in data set [2], 3.0; in [3] it was 2.7; in [4] it was 1.0; in data set [5], “—”; in data set [6] it was “—”. Also, the degree of lysis in data set [7] was 1.0; in [8], 1.7; in [11], 1.7. In addition, the “phages released from their microcapsules” value in [9] came out at 94.4%. Moreover, in [9], the “concentration of released phages” value is listed as 7.99 log10 PFU/mL. This substance had a Pre-encapsulation phage concentration in [10] of 8.6 ± 0.2. Besides, the Encapsulation efficiency in data set [10] is 98.8%. Also, the “Concentration of phages in microcapsules” value in data set [10] came to 8.5 ± 0.1.
For Escherichia phage vB_Eco_MIA, the degree of lysis was 2.0 in data set [1]; 2.7 in data set [2]; 3.0 in data set [3]; 1.0 in data set [4]; “—” in [5]; “—” in data set [6]. Besides, the degree of lysis in data set [7] is recorded as 1.0; in [8], 1.7; in data set [11] it was 2.3. The “phages released from their microcapsules” value in [9] was determined as 94.7%. Also, in data set [9], the “concentration of released phages” value was 8.05 log10 PFU/mL. The substance further displayed a Pre-encapsulation phage concentration in [10] of 8.9 ± 0.1. The substance further had an Encapsulation efficiency in data set [10] of 95.5%. For the same substance, in data set [10], the “Concentration of phages in microcapsules” value came to 8.5 ± 0.1.
On to Escherichia phage vB_Eco_MP_1 [MP1], for which the degree of lysis result in data set [1] is “—”; in [2], “—”; in [3] it was “—”; in data set [4] it was “—”; in data set [5], 2.7; in data set [6], “—”. In addition, the degree of lysis entry in data set [7] is “—”; in [8], “—”; in data set [11], 2.7. The “phages released from their microcapsules” value in [9] was 96.5%. Moreover, in [9], the “concentration of released phages” value is given as 8.94 log10 PFU/mL. In data set [10], this substance registered a Pre-encapsulation phage concentration of 9.3 ± 0.2. Besides, the Encapsulation efficiency in data set [10] is 98.9%. Further, the “Concentration of phages in microcapsules” value in data set [10] came out at 9.2 ± 0.2.
For Escherichia phage vB_Eco_MP_2 [MP2], the degree of lysis result in [1] is listed as “—”; in data set [2] it was “—”; in data set [3] it was “—”; in data set [4], “—”; in [5], 3.0; in data set [6], “—”. Also, the degree of lysis entry in data set [7] is listed as “—”; in data set [8] it was “—”; in data set [11], 3.0. Besides, the “phages released from their microcapsules” value in [9] amounted to 95.4%. The “concentration of released phages” value in data set [9] is reported as 8.88 log10 PFU/mL. In data set [10], this substance gave a Pre-encapsulation phage concentration of 9.4 ± 0.1. Besides, the Encapsulation efficiency in data set [10] came to 98.9%. Further, the “Concentration of phages in microcapsules” value in data set [10] came out at 9.3 ± 0.2.
